Assay results: patent US9549941B2, “Compositions and methods for treating hepatitis C virus” (priority 2011, dated 2017)

Legend:
[1] = test system: 1a-H77 sub-genomic replicon, NS5B S282T; experiment: microbe, parasite or virus in culture; assay type: cell-based, hepatitis C virus
Description: (Lam et al., J. Virology (2011) 85(23): 12334-12342; Lam et al., Antimicrob. Agents Chemother. (2012) 56(6): 3359-3368.) S282T mutations in NS5B were created by site-directed mutagenesis in 1a-H77, 1b con-1, and 2a JFH1 sub-genomic replicons. 1b con-1-based chimeric replicons containing 2b, 3a, 4a, 5a, or 6a NS5B were also engineered to harbor the S282T mutation. […] Relative percentages of mutant and WT were assessed by deep sequencing.

HCV GT2 or GT3 = experiment: ELECTRON Phase 2a clinical study, treatment-naive GT2/GT3 (Groups 1-6, 10); assay type: in vivo, human; details: for HCV RNA (log10 IU/mL), mean: GT2/GT3 Tx-naive, N=10; for HCV RNA below LOD, %: Genotype 2/3 Treatment Naive (Groups 1-6); for % < LOD / n/N < LOD: Groups 1-5, GT2/GT3 Tx-naive
Description: In comparison, only 60% of treatment-naïve GT2/GT3 HCV patients receiving GS-7977 monotherapy achieved SVR-12.
Group 1: GS-7977 (400 mg QD) with RBV (1000/1200 mg BID) for 12 weeks (no peginterferon) (GT2/GT3 treatment-naïve); and
Groups 2, 3, 4: GS-7977 (400 mg QD) with RBV (1000/1200 mg BID) for 12 weeks and PEG (180 μg weekly) weeks 1-4 only/PEG (180 μg weekly) weeks 1-8 only/PEG (180 μg weekly) weeks 1-12 (GT2/GT3 treatment-naïve).
In Part 2 of the ELECTRON trial, an additional 30 patients were enrolled in exploratory regimens of GS-7977 monotherapy and abbreviated durations of total therapy with the combination of GS-7977, RBV and PEG:
Group 5: GS-7977 (400 mg QD) monotherapy for 12 weeks (GT2/GT3 treatment-naïve);
Group 6: GS-7977 (400 mg QD) with PEG (180 μg weekly) and RBV (1000/1200 mg BID) for 8 weeks (GT2/GT3 treatment-naïve); and
Group 10: GS-7977 (400 mg QD) with RBV (1000/1200 mg BID) for 8 weeks (GT2/GT3 treatment-naïve); and […]

CC(C)OC(=O)[C@H](C)N[P@](=O)(OC[C@H]1O[C@@H](n2ccc(=O)[nH]c2=O)[C@](C)(F)[C@@H]1O)Oc1ccccc1 [GS-7977, (S)-isopropyl 2-(((S)-(((2R,3R,4R,5R)-5-(2,4-dioxo-3,4-dihydropyrimidin-1(2H)-yl)-4-fluoro-3-hydroxy-4-methyltetrahydrofuran-2-yl)methoxy)(phenoxy)phosphoryl)amino)propanoate]
EC50 ([1]; Hepatitis C virus, read-out: EC50 S282T): 253 nM
Fold Change ([1]; genotype 1a, S282T from corresponding wild-type): 10.1
HCV RNA (log10 IU/mL), mean (HCV GT2 or GT3; D1): 5.74 log10 IU/mL
HCV RNA (log10 IU/mL), mean (HCV GT2 or GT3; D1 (6 hr) after dosing): 5.63 log10 IU/mL
HCV RNA (log10 IU/mL), mean (HCV GT2 or GT3; D1 (12 hr) after dosing): 4.98 log10 IU/mL
HCV RNA (log10 IU/mL), mean (HCV GT2 or GT3; D2): 3.75 log10 IU/mL
HCV RNA (log10 IU/mL), mean (HCV GT2 or GT3; D3): 2.62 log10 IU/mL
HCV RNA (log10 IU/mL), mean (HCV GT2 or GT3; T = 0 (initial screening values)): 6.08 log10 IU/mL
HCV RNA (log10 IU/mL), mean (HCV GT2 or GT3; W1): 1.56 log10 IU/mL
HCV RNA (log10 IU/mL), mean (HCV GT2 or GT3; W2): 1.22 log10 IU/mL
HCV RNA (log10 IU/mL), mean (HCV GT2 or GT3; W3): 1.15 log10 IU/mL
HCV RNA (log10 IU/mL), mean (HCV GT2 or GT3; W4): 1.15 log10 IU/mL
HCV RNA (log10 IU/mL), mean (HCV GT2 or GT3; W5): 1.15 log10 IU/mL
HCV RNA (log10 IU/mL), mean (HCV GT2 or GT3; W6): 1.15 log10 IU/mL
HCV RNA (log10 IU/mL), mean (HCV GT2 or GT3; W7): 1.15 log10 IU/mL
HCV RNA (log10 IU/mL), mean (HCV GT2 or GT3; W8): 1.15 log10 IU/mL
HCV RNA (log10 IU/mL), mean (HCV GT2 or GT3; W9): 1.15 log10 IU/mL
HCV RNA (log10 IU/mL), mean (HCV GT2 or GT3; W10): 1.15 log10 IU/mL
HCV RNA (log10 IU/mL), mean (HCV GT2 or GT3; W11): 1.15 log10 IU/mL
HCV RNA (log10 IU/mL), mean (HCV GT2 or GT3; W12 (end of treatment)): 1.15 log10 IU/mL
HCV RNA (log10 IU/mL), mean (HCV GT2 or GT3; W14 (after 12-week treatment)): 1.66 log10 IU/mL
HCV RNA (log10 IU/mL), mean (HCV GT2 or GT3; W16 (after 12-week treatment)): 2.95 log10 IU/mL
HCV RNA (log10 IU/mL), mean (HCV GT2 or GT3; W20 (after 12-week treatment)): 3.12 log10 IU/mL
HCV RNA (log10 IU/mL), mean (HCV GT2 or GT3; W24 (12 weeks after treatment)): 3.17 log10 IU/mL
HCV RNA below LOD, % (HCV GT2 or GT3; SVR-4): (60) %
HCV RNA below LOD, % (HCV GT2 or GT3; SVR-12): (60) %
HCV RNA below LOD, % (HCV GT2 or GT3; Time 1 wk): (50) %
HCV RNA below LOD, % (HCV GT2 or GT3; Time 2 wks): (80) %
HCV RNA below LOD, % (HCV GT2 or GT3; Time 3 wks): (100) %
HCV RNA below LOD, % (HCV GT2 or GT3; Time 4 wks): (100) %
HCV RNA below LOD, % (HCV GT2 or GT3; Time 8 wks): (100) %
HCV RNA below LOD, % (HCV GT2 or GT3; Time 12 wks): (100) %
% < LOD (HCV GT2 or GT3; SVR-4): 60%
n/N < LOD (HCV GT2 or GT3; SVR-4): 6/10
% < LOD (HCV GT2 or GT3; SVR-8): 60%
n/N < LOD (HCV GT2 or GT3; SVR-8): 6/10
% < LOD (HCV GT2 or GT3; SVR-12): 60%
n/N < LOD (HCV GT2 or GT3; SVR-12): 6/10
% < LOD (HCV GT2 or GT3; SVR-24): 60%
n/N < LOD (HCV GT2 or GT3; SVR-24): 6/10
% < LOD (HCV GT2 or GT3; Time 0 wks): 0%
% < LOD (HCV GT2 or GT3; Time 4 wks): 100%
n/N < LOD (HCV GT2 or GT3; Time 4 wks): 10/10
% < LOD (HCV GT2 or GT3; Time 8 wks): 100%
n/N < LOD (HCV GT2 or GT3; Time 8 wks): 10/10
% < LOD (HCV GT2 or GT3; Time 12 wks): 100%
n/N < LOD (HCV GT2 or GT3; Time 12 wks): 10/10
SVR-24 (HCV GT2 or GT3; treatment-naive GT2/GT3, 12 weeks GS-7977 400 mg QD): 60%
SVR-12 (HCV GT2 or GT3; treatment-naive GT2/GT3 HCV patients, GS-7977 400 mg QD): 60%
